These results are taken from US8557816B2, “Aurora kinase modulators and method of use” (Amgen Inc., priority 2007, dated 2013).

In one experiment the target is T1, AuroraA-TPX2 (Homo sapiens, UniProt O14965).
T1 construct: 20 μL of AuroraA-TPX2 KD GST for a final volume of about 41 μL; GST
T1 sequence (O14965 133-383 limits assumed): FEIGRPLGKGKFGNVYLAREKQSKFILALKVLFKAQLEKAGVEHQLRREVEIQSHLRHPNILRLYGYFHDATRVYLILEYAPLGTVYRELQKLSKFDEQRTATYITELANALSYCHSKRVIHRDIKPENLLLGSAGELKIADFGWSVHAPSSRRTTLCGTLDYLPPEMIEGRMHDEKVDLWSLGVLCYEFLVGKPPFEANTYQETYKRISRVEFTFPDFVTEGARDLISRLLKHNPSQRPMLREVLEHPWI
T1 sequence (Q9ULW0 1-43 partner limits assumed): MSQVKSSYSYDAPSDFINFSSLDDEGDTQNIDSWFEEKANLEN
Description: AuroraA-TPX2 Homogeneous Time Resolved Fluorescent (HTRF) kinase assay. As to conditions: average; read-out: AurA_IC50_IP (uM Avg). It counts as biochemical. In a few lines: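 HTRF read-out (Eu 615 nm to APC 655 nm) of phosphorylated biotin-PLK, detected with 0.02 nM europium anti-phosphoPLK antibody and 0.0005 mg/mL SA-APC after overnight equilibration.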
On the technique in general: TR-FRET usually uses a lanthanide donor and a delayed reading to cut background.

The target in a further experiment is T2, AuroraB (Homo sapiens, UniProt Q96GD4).
T2 construct: 20 μL of AuroraB FL H is for a final volume of 41 μL; His
T2 sequence (Q96GD4 whole entry): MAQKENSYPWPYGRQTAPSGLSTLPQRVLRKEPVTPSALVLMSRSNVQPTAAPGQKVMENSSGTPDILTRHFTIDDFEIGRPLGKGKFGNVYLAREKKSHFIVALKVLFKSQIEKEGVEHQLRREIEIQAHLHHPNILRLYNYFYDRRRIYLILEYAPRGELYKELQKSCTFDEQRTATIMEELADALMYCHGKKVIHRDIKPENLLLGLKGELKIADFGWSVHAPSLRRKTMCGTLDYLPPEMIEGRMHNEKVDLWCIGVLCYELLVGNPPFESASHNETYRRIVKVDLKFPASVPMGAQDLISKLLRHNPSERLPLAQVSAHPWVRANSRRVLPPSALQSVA
Put plainly: AuroraB Homogeneous Time Resolved Fluorescent (HTRF) kinase assay. It counts as biochemical. As to conditions: average; read-out: AurB_IC50_IP (uM Avg). The essentials: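 Read-out is time-resolved FRET between europium anti-phospho-H3 antibody and streptavidin-APC, added in EDTA buffer to stop the reaction and equilibrated about 60 min (ex 320, em 615 and 655 nm). Preceding reaction: ~90 min, full-length enzyme, ATP, 0.1 μM biotin-Histone H3 substrate, Mg/Mn HEPES buffer pH 7.5.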

Consider `COc1cc2nccc(Sc3ccc(Nc4nnc(-c5ccccc5)c5ccccc45)cc3)c2cn1` [compound 353, N-(4-(7-methoxy-1,6-naphthyridin-4-ylthio)phenyl)-4-phenylphthalazin-1-amine], for which the IC50 on AuroraA-TPX2 was determined as 0.058 µM; on AuroraB, 0.008 µM.

For `COc1cnc2c(Oc3ccc(Nc4nnc(N5CCCCC5)c5ccccc45)cc3)ccnc2c1` [compound 151, N-(4-((7-(methyloxy)-1,5-naphthyridin-4-yl)oxy)phenyl)-4-(1-piperidinyl)-1-phthalazinamine], the IC50 on AuroraA-TPX2 is 0.022 µM; at AuroraB, 0.005 µM.

In the case of `COCCOCCn1c(=O)ccc2nccc(Sc3ccc(Nc4nnc(-c5ccc(Cl)cc5)c5ccccc45)cc3)c21` [compound 476], the IC50 was 0.746 µM on AuroraA-TPX2 and 0.293 µM on AuroraB.

With `COc1cnc2c(Oc3ccc(Nc4nnc(-c5ccc(F)c(F)c5)c5ccccc45)cc3)ccnc2c1` [compound 214, 4-(3,4-difluorophenyl)-N-(4-((7-(methyloxy)-1,5-naphthyridin-4-yl)oxy)phenyl)-1-phthalazinamine], the IC50 on AuroraA-TPX2 turned out to be 0.085 µM; at AuroraB, 0.007 µM.

On to `c1ccc(-c2nnc(Nc3ccc(Oc4ccnc5ccc(N6CCOCC6)cc45)cc3)c3ccccc23)cc1` [compound 264, N-(4-((6-(4-morpholinyl)-4-quinolinyl)oxy)phenyl)-4-phenyl-1-phthalazinamine], for which the IC50 came out at 0.139 µM at AuroraA-TPX2 and 0.016 µM on AuroraB.

`COc1cnc2c(Oc3ccc(Nc4nnc(-c5cccc(COC(C)=O)n5)c5ccccc45)cc3)ccnc2c1` [compound 132, (6-(4-((4-((7-(methyloxy)-1,5-naphthyridin-4-yl)oxy)phenyl)amino)-1-phthalazinyl)-2-pyridinyl)methyl acetate]: the figures for the IC50 at AuroraA-TPX2 and on AuroraB were 0.022 µM and 0.005 µM, respectively.

Regarding `Clc1ccc(-c2nnc(Nc3ccc(Oc4ncnc5[nH]ccc45)cc3)c3ccccc23)cc1` [compound 290, 4-(4-chlorophenyl)-N-(4-(7H-pyrrolo[2,3-d]pyrimidin-4-yloxy)phenyl)-1-phthalazinamine], the results for the IC50 at AuroraA-TPX2 and at AuroraB were 0.35 µM and 0.009 µM, respectively.

Take `COc1cc2nccc(Oc3ccc(Nc4nnc(-c5ccccc5)c5ccccc45)cc3)c2cc1C(N)=O` [compound 225, 7-(methyloxy)-4-((4-((4-phenyl-1-phthalazinyl)amino)phenyl)oxy)-6-quinolinecarboxamide]: the IC50 is 0.023 µM at AuroraA-TPX2 and 0.004 µM on AuroraB.

With `c1ccc2c(-c3ccc4c(c3)OCO4)nnc(Nc3ccc(Sc4ccnc5ccoc45)cc3)c2c1` [compound 467], the IC50 at AuroraA-TPX2 turned out to be 0.095 µM; at AuroraB, 0.01 µM.

Take `COc1cc(OC)c2c(Sc3ccc(Nc4nnc(-c5ccc(Cl)cc5)c5ccccc45)cc3)ccnc2c1` [compound 436]: the IC50 at AuroraA-TPX2 is 0.401 µM; at AuroraB, 0.675 µM.

For `COc1cnc2c(Oc3ccc(Nc4nnc(-c5ccc(SC)cc5)c5ccccc45)cc3)ccnc2c1` [compound 237, N-(4-((7-(methyloxy)-1,5-naphthyridin-4-yl)oxy)phenyl)-4-(4-(methylthio)phenyl)-1-phthalazinamine], the IC50 amounted to 0.038 µM at AuroraA-TPX2 and 0.005 µM on AuroraB.

Take `COc1cnc2c(Oc3ccc(Nc4nnc(-c5cccc(OC)n5)c5ccccc45)cc3)ccnc2c1` [compound 99, N-(4-((7-(methyloxy)-1,5-naphthyridin-4-yl)oxy)phenyl)-4-(6-(methyloxy)-2-pyridinyl)-1-phthalazinamine]: the IC50 at AuroraA-TPX2 is 0.01 µM; at AuroraB, 0.002 µM.

In the case of `COc1cnc2c(Oc3ccc(Nc4nnc(-c5ccc(C(F)(F)F)cc5)c5ccccc45)cc3)ccnc2c1` [compound 146, N-(4-((7-(methyloxy)-1,5-naphthyridin-4-yl)oxy)phenyl)-4-(4-(trifluoromethyl)phenyl)-1-phthalazinamine], the IC50 at AuroraA-TPX2 amounted to 0.026 µM; at AuroraB it was 0.008 µM.

In the case of `COc1cnc2c(Oc3ccc(Nc4nnc(-c5cc(F)cc(F)c5)c5ccccc45)cc3)ccnc2c1` [compound 539], the results for the IC50 at AuroraA-TPX2 and on AuroraB were 0.133 µM and 0.02 µM, respectively.

As to `N#Cc1ccc2c(Oc3ccc(Nc4nnc(-c5cccc(O)c5)c5ccccc45)cc3)ccnc2c1` [compound 93, 4-((4-((4-(3-hydroxyphenyl)-1-phthalazinyl)amino)phenyl)oxy)-7-quinolinecarbonitrile], the IC50 on AuroraA-TPX2 worked out at 0.008 µM; on AuroraB, 0.001 µM.

Consider `COc1cnc2c(Oc3ccc(Nc4nnc(-c5cccc(C(=O)N(C)C)c5)c5ccccc45)cc3)ccnc2c1` [compound 226, N,N-dimethyl-3-(4-((4-((7-(methyloxy)-1,5-naphthyridin-4-yl)oxy)phenyl)amino)-1-phthalazinyl)benzamide], for which the IC50 worked out at 0.187 µM on AuroraA-TPX2 and 0.014 µM on AuroraB.

With `Clc1ccc(-c2nnc(Nc3ccc(Sc4ccnc5cccnc45)cc3)c3ccccc23)cc1` [Example 33, N-(4-(1,5-naphthyridin-4-ylthio)phenyl)-4-(4-chlorophenyl)phthalazin-1-amine], the values for the IC50 at AuroraA-TPX2 and at AuroraB were 0.022 µM and 0.003 µM, respectively.

Turning to `COCCCNc1nnc(Nc2ccc(Sc3ccnc4cc(OC)cnc34)cc2)c2ccccc12` [compound 535], the IC50 at AuroraA-TPX2 is 0.022 µM; at AuroraB it was 0.02 µM.

Regarding `COc1ccc2c(Oc3ccc(Nc4nnc(-c5ccccc5)c5ccccc45)cc3)c(F)cnc2c1` [compound 164, N-(4-((3-fluoro-7-(methyloxy)-4-quinolinyl)oxy)phenyl)-4-phenyl-1-phthalazinamine], the results for the IC50 on AuroraA-TPX2 and at AuroraB were 0.04 µM and 0.003 µM, respectively.

`COCCOCCOc1ccc2nccc(Sc3ccc(Nc4nnc(-c5ccc(Cl)cc5)c5ccccc45)cc3)c2n1` [compound 475]: the IC50 at AuroraA-TPX2 came to 0.035 µM; on AuroraB it was 0.026 µM.

For `COc1cnc2c(Oc3ccc(Nc4nnc(-c5ccccc5)c5ccccc45)cc3)ccnc2c1` [compound 79, N-(4-((7-(methyloxy)-1,5-naphthyridin-4-yl)oxy)phenyl)-4-phenyl-1-phthalazinamine], the values for the IC50 at AuroraA-TPX2 and on AuroraB were 0.028 µM and 0.008 µM, respectively.

Turning to `CCc1cc(-c2ccccc2)nnc1Nc1ccc(Oc2ccnc3cc(OC)cnc23)nc1` [compound 83, 4-ethyl-N-(6-((7-(methyloxy)-1,5-naphthyridin-4-yl)oxy)-3-pyridinyl)-6-phenyl-3-pyridazinamine], the IC50 is 0.08 µM on AuroraA-TPX2 and 0.01 µM at AuroraB.

With `COc1cc2nccc(Sc3ccc(Nc4nnc(-c5ccc(Cl)cc5)c5ccccc45)cc3)c2nc1OC` [compound 598], the IC50 on AuroraA-TPX2 came to 0.135 µM; at AuroraB, 0.595 µM.

Consider `COc1cnc2c(Sc3ccc(Nc4nnc(-c5ccn(C)c(=O)c5)c5ccccc45)cc3)ccnc2c1` [Example 396, 4-(4-(4-(7-Methoxy-1,5-naphthyridin-4-ylthio)phenylamino)phthalazin-1-yl)-1-methylpyridin-2(1H)-one], for which the IC50 on AuroraA-TPX2 is 0.05 µM; on AuroraB, greater than 125 µM.

As for `Clc1ccc(-c2nnc(Nc3ccc(Sc4ccnc5ccncc45)cc3)c3ccccc23)cc1` [compound 426], the IC50 at AuroraA-TPX2 turned out to be 0.1 µM; on AuroraB, 0.008 µM.

For the compound `Cc1nc(-c2nnc(Nc3ccc(Oc4ccnc5cc(C#N)ccc45)cc3)c3ccccc23)sc1C` [compound 277, 4-((4-((4-(4,5-dimethyl-1,3-thiazol-2-yl)-1-phthalazinyl)amino)phenyl)oxy)-7-quinolinecarbonitrile], the IC50 at AuroraA-TPX2 turned out to be 0.065 µM; on AuroraB, 0.007 µM.

For the compound `COCCOc1cc(-c2nnc(Nc3ccc(Oc4ccnc5cc(OC)cnc45)cc3)c3ccccc23)ccc1C` [Example 395, N-(4-(7-Methoxy-1,5-naphthyridin-4-yloxy)phenyl)-4-(3-(2-methoxyethoxy)-4-methylphenyl)phthalazin-1-amine], the IC50 came out at 0.047 µM at AuroraA-TPX2 and 0.012 µM on AuroraB.

As to `COc1cnc2c(Oc3ccc(Nc4nnc(-c5ccc(C)c(N)c5)c5ccccc45)cc3)ccnc2c1` [compound 209, 4-(3-amino-4-methylphenyl)-N-(4-((7-(methyloxy)-1,5-naphthyridin-4-yl)oxy)phenyl)-1-phthalazinamine], the IC50 at AuroraA-TPX2 was 0.012 µM; at AuroraB it was 0.001 µM.

With `COc1cnc2c(Sc3ccc(Nc4nnc(-c5ccc6cn[nH]c6c5)c5ccccc45)cc3)ccnc2c1` [compound 453], the IC50 at AuroraA-TPX2 stood at 0.028 µM; on AuroraB it was 0.032 µM.

As to `c1ccc(-c2nnc(Nc3ccc(Sc4ccnc5ccoc45)cc3)c3ccccc23)cc1` [compound 466], the IC50 on AuroraA-TPX2 stood at 0.431 µM; at AuroraB, 0.013 µM.

Consider `COc1cc2nccc(Nc3ccc(Nc4nnc(-c5ccccc5)c5ccccc45)cc3)c2cn1` [compound 124, N-(7-(methyloxy)-1,6-naphthyridin-4-yl)-N′-(4-phenyl-1-phthalazinyl)-1,4-benzenediamine], for which the results for the IC50 on AuroraA-TPX2 and at AuroraB were 0.042 µM and 0.002 µM, respectively.

Take `Cc1ccc(-c2nnc(Nc3ccc(Oc4ccnc5ccsc45)cc3)c3ccccc23)cc1` [compound 252, 4-(4-methylphenyl)-N-(4-(thieno[3,2-b]pyridin-7-yloxy)phenyl)-1-phthalazinamine]: the IC50 on AuroraA-TPX2 worked out at 0.077 µM; on AuroraB, 0.005 µM.
